# Results reported in paper PMC11899342, “Novel Triazeneindole Antibiotics: Synthesis and Hit-to-Lead Optimization” (International Journal of Molecular Sciences, 2025).
# Test system: MRSA clinical isolates
# Assay: Antibiotic susceptibility profile of MRSA clinical isolates (EUCAST breakpoints)
# Assay type: cell-based, Staphylococcus aureus
# Text: Clinical MRSA isolates with multidrug resistance were obtained from the collection of the Research Institute of Antimicrobial Chemotherapy, Smolensk State Medical Academy.
smiles,measurement,setting,value
"CNC(C)C1CCC(N)C(OC2C(N)CC(N)C(OC3OCC(C)(O)C(NC)C3O)C2O)O1 (stereo not drawn) [GEN, gentamicin]",Drug sensibility profile,MRSA strain 1,S
same,Drug sensibility profile,MRSA strain 2,R
same,Drug sensibility profile,MRSA strain 3,R
same,Drug sensibility profile,MRSA strain 4,R
same,Drug sensibility profile,MRSA strain 5,R
same,Drug sensibility profile,MRSA strain 6,S
same,Drug sensibility profile,MRSA strain 7,R
same,Drug sensibility profile,MRSA strain 8,R
same,Drug sensibility profile,MRSA strain 9,R
same,Drug sensibility profile,MRSA strain 10,S
same,Drug sensibility profile,MRSA strain 12,S
same,Drug sensibility profile,MRSA strain 13,R
same,Drug sensibility profile,MRSA strain 14,R
same,Drug sensibility profile,MRSA strain 15,S
same,Drug sensibility profile,MRSA strain 16,R
same,Drug sensibility profile,MRSA strain 17,R
same,Drug sensibility profile,MRSA strain 18,R
same,Drug sensibility profile,MRSA strain 21,S
same,Drug sensibility profile,MRSA strain 23,R
same,Drug sensibility profile,MRSA strain 24,R
same,Drug sensibility profile,MRSA strain 25,R
same,Drug sensibility profile,MRSA strain 26,S S S S S S S
same,Drug sensibility profile,MRSA strain 27,R
same,Drug sensibility profile,MRSA strain 28,R
same,Drug sensibility profile,MRSA strain 29,S
same,Drug sensibility profile,MRSA strain 30,S
same,Drug sensibility profile,MRSA strain 31,R
same,Drug sensibility profile,MRSA strain 34,R
same,Drug sensibility profile,MRSA strain 35,R
same,Drug sensibility profile,MRSA strain 36,S S S S S S S
same,Drug sensibility profile,MRSA strain 40,R
same,Drug sensibility profile,MRSA strain 41,R
same,Drug sensibility profile,MRSA strain 42,R
same,Drug sensibility profile,MRSA strain 43,R
same,Drug sensibility profile,MRSA strain 44,R
same,Drug sensibility profile,MRSA strain 45,R
same,Drug sensibility profile,MRSA strain 46,S
same,Drug sensibility profile,MRSA strain 48,R
same,Drug sensibility profile,MRSA strain 49,S
same,Drug sensibility profile,MRSA strain 50,R
same,Drug sensibility profile,MRSA strain 51,R
Cn1nnc(-c2ccc(-c3ccc(N4C[C@H](CO)OC4=O)cc3F)cn2)n1 [Tedizolid],Drug sensibility profile,MRSA strain 6,S
same,Drug sensibility profile,MRSA strain 7,S
same,Drug sensibility profile,MRSA strain 8,S
same,Drug sensibility profile,MRSA strain 9,S
same,Drug sensibility profile,MRSA strain 10,S
same,Drug sensibility profile,MRSA strain 12,S
same,Drug sensibility profile,MRSA strain 13,S
same,Drug sensibility profile,MRSA strain 14,S
same,Drug sensibility profile,MRSA strain 15,S
same,Drug sensibility profile,MRSA strain 16,S
same,Drug sensibility profile,MRSA strain 17,S
same,Drug sensibility profile,MRSA strain 18,S
same,Drug sensibility profile,MRSA strain 21,S
same,Drug sensibility profile,MRSA strain 23,S
same,Drug sensibility profile,MRSA strain 24,S
same,Drug sensibility profile,MRSA strain 25,S
same,Drug sensibility profile,MRSA strain 26,S
same,Drug sensibility profile,MRSA strain 27,S
same,Drug sensibility profile,MRSA strain 28,S
same,Drug sensibility profile,MRSA strain 29,S
same,Drug sensibility profile,MRSA strain 36,S
same,Drug sensibility profile,MRSA strain 41,S
same,Drug sensibility profile,MRSA strain 42,S
same,Drug sensibility profile,MRSA strain 44,S
same,Drug sensibility profile,MRSA strain 45,S
same,Drug sensibility profile,MRSA strain 51,S
CC(=O)O[C@H]1C[C@@]2(C)[C@@H](C[C@@H](O)[C@H]3[C@@]4(C)CC[C@@H](O)[C@@H](C)[C@@H]4CC[C@@]32C)/C1=C(\CCC=C(C)C)C(=O)O [Fusidic acid],Drug sensibility profile,MRSA strain 1,S
same,Drug sensibility profile,MRSA strain 2,S
same,Drug sensibility profile,MRSA strain 3,S
same,Drug sensibility profile,MRSA strain 4,S
same,Drug sensibility profile,MRSA strain 5,S
same,Drug sensibility profile,MRSA strain 6,S
same,Drug sensibility profile,MRSA strain 7,S
same,Drug sensibility profile,MRSA strain 8,S
same,Drug sensibility profile,MRSA strain 9,S
same,Drug sensibility profile,MRSA strain 10,S
same,Drug sensibility profile,MRSA strain 12,S
same,Drug sensibility profile,MRSA strain 13,S
same,Drug sensibility profile,MRSA strain 14,S
same,Drug sensibility profile,MRSA strain 15,S
same,Drug sensibility profile,MRSA strain 16,S
same,Drug sensibility profile,MRSA strain 17,R
same,Drug sensibility profile,MRSA strain 18,S
same,Drug sensibility profile,MRSA strain 21,S
same,Drug sensibility profile,MRSA strain 23,S
same,Drug sensibility profile,MRSA strain 24,S
same,Drug sensibility profile,MRSA strain 25,S
same,Drug sensibility profile,MRSA strain 26,S
same,Drug sensibility profile,MRSA strain 27,S
same,Drug sensibility profile,MRSA strain 28,S
same,Drug sensibility profile,MRSA strain 29,S
same,Drug sensibility profile,MRSA strain 30,S
same,Drug sensibility profile,MRSA strain 31,S
same,Drug sensibility profile,MRSA strain 34,S
same,Drug sensibility profile,MRSA strain 35,S
same,Drug sensibility profile,MRSA strain 36,S
same,Drug sensibility profile,MRSA strain 40,S
same,Drug sensibility profile,MRSA strain 41,S
same,Drug sensibility profile,MRSA strain 42,S
same,Drug sensibility profile,MRSA strain 43,S
same,Drug sensibility profile,MRSA strain 44,S
same,Drug sensibility profile,MRSA strain 45,S
same,Drug sensibility profile,MRSA strain 46,S
same,Drug sensibility profile,MRSA strain 48,S
same,Drug sensibility profile,MRSA strain 49,S
same,Drug sensibility profile,MRSA strain 50,S
same,Drug sensibility profile,MRSA strain 51,S
C/C(=C\C(=O)OCCCCCCCCC(=O)O)C[C@@H]1OC[C@H](C[C@@H]2O[C@H]2[C@@H](C)[C@H](C)O)[C@@H](O)[C@H]1O [Mupirocin],Drug sensibility profile,MRSA strain 1,S
same,Drug sensibility profile,MRSA strain 2,S
same,Drug sensibility profile,MRSA strain 3,S
same,Drug sensibility profile,MRSA strain 4,S
same,Drug sensibility profile,MRSA strain 5,S
same,Drug sensibility profile,MRSA strain 6,S
same,Drug sensibility profile,MRSA strain 7,S
same,Drug sensibility profile,MRSA strain 8,S
same,Drug sensibility profile,MRSA strain 9,S
same,Drug sensibility profile,MRSA strain 10,S
same,Drug sensibility profile,MRSA strain 12,S
same,Drug sensibility profile,MRSA strain 13,S
same,Drug sensibility profile,MRSA strain 14,S
same,Drug sensibility profile,MRSA strain 15,S
same,Drug sensibility profile,MRSA strain 16,S
same,Drug sensibility profile,MRSA strain 17,S
same,Drug sensibility profile,MRSA strain 18,S
same,Drug sensibility profile,MRSA strain 21,S
same,Drug sensibility profile,MRSA strain 23,S
same,Drug sensibility profile,MRSA strain 24,S
same,Drug sensibility profile,MRSA strain 25,S
same,Drug sensibility profile,MRSA strain 26,S
same,Drug sensibility profile,MRSA strain 27,S
same,Drug sensibility profile,MRSA strain 28,S
same,Drug sensibility profile,MRSA strain 29,S
same,Drug sensibility profile,MRSA strain 30,S
same,Drug sensibility profile,MRSA strain 31,S
same,Drug sensibility profile,MRSA strain 34,S
same,Drug sensibility profile,MRSA strain 35,S
same,Drug sensibility profile,MRSA strain 36,S
same,Drug sensibility profile,MRSA strain 40,S
same,Drug sensibility profile,MRSA strain 41,S
same,Drug sensibility profile,MRSA strain 42,S
same,Drug sensibility profile,MRSA strain 43,S
same,Drug sensibility profile,MRSA strain 44,S
same,Drug sensibility profile,MRSA strain 45,S
same,Drug sensibility profile,MRSA strain 46,S
same,Drug sensibility profile,MRSA strain 48,S
same,Drug sensibility profile,MRSA strain 49,S
same,Drug sensibility profile,MRSA strain 50,I
same,Drug sensibility profile,MRSA strain 51,S
"CN(C)[C@@H]1C(O)=C(C(N)=O)C(=O)[C@@]2(O)C(O)=C3C(=O)c4c(O)cccc4[C@@](C)(O)[C@H]3C[C@@H]12 [TET, tetracycline]",Drug sensibility profile,MRSA strain 1,R
same,Drug sensibility profile,MRSA strain 2,R
same,Drug sensibility profile,MRSA strain 3,S
same,Drug sensibility profile,MRSA strain 4,S
same,Drug sensibility profile,MRSA strain 5,S
same,Drug sensibility profile,MRSA strain 6,S
same,Drug sensibility profile,MRSA strain 7,R
same,Drug sensibility profile,MRSA strain 8,R
same,Drug sensibility profile,MRSA strain 9,R
same,Drug sensibility profile,MRSA strain 10,S
same,Drug sensibility profile,MRSA strain 12,R
same,Drug sensibility profile,MRSA strain 13,R
same,Drug sensibility profile,MRSA strain 14,S
same,Drug sensibility profile,MRSA strain 15,R
same,Drug sensibility profile,MRSA strain 16,S
same,Drug sensibility profile,MRSA strain 17,S
same,Drug sensibility profile,MRSA strain 18,S
same,Drug sensibility profile,MRSA strain 21,R
same,Drug sensibility profile,MRSA strain 23,S
same,Drug sensibility profile,MRSA strain 24,S
same,Drug sensibility profile,MRSA strain 25,S
same,Drug sensibility profile,MRSA strain 26,S S S S S S S
same,Drug sensibility profile,MRSA strain 27,R
same,Drug sensibility profile,MRSA strain 28,R
same,Drug sensibility profile,MRSA strain 29,S
same,Drug sensibility profile,MRSA strain 30,S
same,Drug sensibility profile,MRSA strain 31,S
same,Drug sensibility profile,MRSA strain 34,S
same,Drug sensibility profile,MRSA strain 35,S
same,Drug sensibility profile,MRSA strain 36,S S S S S S S
same,Drug sensibility profile,MRSA strain 40,R
same,Drug sensibility profile,MRSA strain 41,R
same,Drug sensibility profile,MRSA strain 42,S
same,Drug sensibility profile,MRSA strain 43,S
same,Drug sensibility profile,MRSA strain 44,S
same,Drug sensibility profile,MRSA strain 45,I
same,Drug sensibility profile,MRSA strain 46,S
same,Drug sensibility profile,MRSA strain 48,R
same,Drug sensibility profile,MRSA strain 49,R
same,Drug sensibility profile,MRSA strain 50,R
same,Drug sensibility profile,MRSA strain 51,S
"CC[C@H]1OC(=O)[C@H](C)[C@@H](O[C@H]2C[C@@](C)(OC)[C@@H](O)[C@H](C)O2)[C@H](C)[C@@H](O[C@@H]2O[C@H](C)C[C@H](N(C)C)[C@H]2O)[C@](C)(O)C[C@@H](C)C(=O)[C@H](C)[C@@H](O)[C@]1(C)O [ERI, erythromycin]",Drug sensibility profile,MRSA strain 1,S
same,Drug sensibility profile,MRSA strain 2,R
same,Drug sensibility profile,MRSA strain 3,S
same,Drug sensibility profile,MRSA strain 4,S
same,Drug sensibility profile,MRSA strain 5,R
same,Drug sensibility profile,MRSA strain 6,R
same,Drug sensibility profile,MRSA strain 7,R
same,Drug sensibility profile,MRSA strain 8,R
same,Drug sensibility profile,MRSA strain 9,R
same,Drug sensibility profile,MRSA strain 10,S
same,Drug sensibility profile,MRSA strain 12,R
same,Drug sensibility profile,MRSA strain 13,S
same,Drug sensibility profile,MRSA strain 14,R
same,Drug sensibility profile,MRSA strain 15,S
same,Drug sensibility profile,MRSA strain 16,R
same,Drug sensibility profile,MRSA strain 17,S
same,Drug sensibility profile,MRSA strain 18,S
same,Drug sensibility profile,MRSA strain 21,R
same,Drug sensibility profile,MRSA strain 23,R
same,Drug sensibility profile,MRSA strain 24,S
same,Drug sensibility profile,MRSA strain 25,S
same,Drug sensibility profile,MRSA strain 26,S S S S S S S
same,Drug sensibility profile,MRSA strain 27,S
same,Drug sensibility profile,MRSA strain 28,R
same,Drug sensibility profile,MRSA strain 29,S
same,Drug sensibility profile,MRSA strain 30,I
same,Drug sensibility profile,MRSA strain 31,R
same,Drug sensibility profile,MRSA strain 34,I
same,Drug sensibility profile,MRSA strain 35,I
same,Drug sensibility profile,MRSA strain 36,S S S S S S S
same,Drug sensibility profile,MRSA strain 40,R
same,Drug sensibility profile,MRSA strain 41,S
same,Drug sensibility profile,MRSA strain 42,S
same,Drug sensibility profile,MRSA strain 43,I
same,Drug sensibility profile,MRSA strain 44,I
same,Drug sensibility profile,MRSA strain 45,R
same,Drug sensibility profile,MRSA strain 46,S
same,Drug sensibility profile,MRSA strain 48,R
same,Drug sensibility profile,MRSA strain 49,I
same,Drug sensibility profile,MRSA strain 50,R
same,Drug sensibility profile,MRSA strain 51,S
